Experimental data published in patent US12404295B2, “(Hetero)aryl-methyl-thio-beta-D-galactopyranoside derivatives” (Idorsia Pharmaceuticals Ltd, priority 2019, dated 2025).
Read-outs that look alike come from different tables or passages of the source.

Key:
[1] = molecular target: human Gal-3 (hGal-3) (Homo sapiens (Human), UniProt P17931); test: competitive binding assay: biotinylated hGal-3 binding to microplate-adsorbed asialofetuin (ASF)
How it was run: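 Competition of compounds with biotinylated human Gal-3 for asialofetuin-coated plates, 3 hours at 4° C. Bound Gal-3 detected with streptavidin-peroxidase (80 ng/mL, 1 hour, 4° C) and ABTS substrate. IC50 reported as the mean of several measurements.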

[2] = molecular target: human Gal-1 (hGal-1) (Homo sapiens (Human), UniProt P09382); test: competitive binding assay: biotinylated hGal-1 binding to microplate-adsorbed asialofetuin (ASF); details: Table 15; read-out: IC50 (Galectin-1 inhibition)
Chain of human Gal-1 (hGal-1) (P09382 whole entry): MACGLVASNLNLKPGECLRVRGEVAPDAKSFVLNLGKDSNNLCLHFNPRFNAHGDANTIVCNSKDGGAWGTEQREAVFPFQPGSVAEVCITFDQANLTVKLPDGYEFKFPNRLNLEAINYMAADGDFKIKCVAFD
How it was run: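 Biotinylated human Gal-1 (300-1000 ng/mL) competes with serially diluted compound for binding to ASF-coated plates, 3 h at 4° C. Bound protein detected with streptavidin-peroxidase and ABTS substrate (spectrophotometric). IC50 given as mean of several measurements.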

[3] = Table 5, read-out: IC50 (Gal-3 inhibition)
[4] = Gal-3 inhibition, binding of biotinylated hGal-3 to ASF, mean values, read-out: IC50
[5] = Table 14, read-out: IC50 (Gal-3 inhibition)

Chain of human Gal-3 (hGal-3) (P17931 whole entry): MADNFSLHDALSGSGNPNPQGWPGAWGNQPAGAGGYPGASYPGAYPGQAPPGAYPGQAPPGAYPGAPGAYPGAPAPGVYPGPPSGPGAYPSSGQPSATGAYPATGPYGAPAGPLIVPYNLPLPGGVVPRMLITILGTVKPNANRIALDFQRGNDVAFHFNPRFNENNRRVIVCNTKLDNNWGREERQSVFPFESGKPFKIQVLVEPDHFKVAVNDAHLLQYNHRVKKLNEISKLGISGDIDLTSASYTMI

Row | Molecule | IC50 [2] [nM] | IC50 [1, 3] [nM] | IC50 [1, 4] [nM] | other results
1 | CO[C@@H]1[C@@H](n2cc(-c3cc(F)c(F)c(F)c3)nn2)[C@@H](O)[C@@H](CO)O[C@H]1S[C@H](c1ccccc1C)[C@]1(O)CCOC(C)(C)C1 [Example 2.43.102RS.I., (2R,3R,4S,5R,6S)-6-(((R)-((S)-4-Hydroxy-2,2-dimethyltetrahydro-2H-pyran-4-yl)(o-tolyl)methyl)thio)-2-(hydroxymethyl)-5-methoxy-4-(4-(3,4,5-trifluorophenyl)-1H-1,2,3-triazol-1-yl)tetrahydro-2H-pyran-3-ol] | 1900 | – | – | IC50 ([1]; Table 9, 2-OMe-Gal inhibitors, read-out: IC50 (Gal-3 inhibition)): 60 nM
2 | Cc1ccccc1[C@H](S[C@@H]1O[C@H](CO)[C@H](O)[C@H](n2cc(-c3cc(F)c(F)c(F)c3)nn2)[C@H]1O)C1(O)CCCC1 [Example 2.38.102S., (2S,3R,4S,5R,6R)-2-(((S)-(1-Hydroxycyclopentyl)(o-tolyl)methyl)thio)-6-(hydroxymethyl)-4-(4-(3,4,5-trifluorophenyl)-1H-1,2,3-triazol-1-yl)tetrahydro-2H-pyran-3,5-diol] | 17000 | 2750 | – | –
3 | Cc1ccccc1[C@H](S[C@@H]1O[C@H](CO)[C@H](O)[C@H](n2cc(-c3cc(F)c(F)c(F)c3)nn2)[C@H]1O)C1(O)CCCCC1 [Example 2.39.102S., (2S,3R,4S,5R,6R)-2-(((S)-(1-Hydroxycyclohexyl)(o-tolyl)methyl)thio)-6-(hydroxymethyl)-4-(4-(3,4,5-trifluorophenyl)-1H-1,2,3-triazol-1-yl)tetrahydro-2H-pyran-3,5-diol] | 24000 | 4540 | – | –
4 | CO[C@@H]1[C@@H](n2cc(-c3cc(F)c(F)c(F)c3)nn2)[C@@H](O)[C@@H](CO)O[C@H]1SC(c1c(C)cnn1C)C1(O)CCC(F)(F)CC1 (stereo partly drawn) [Example 2.44.136.I., (2R,3R,4S,5R,6S)-6-(((4,4-Difluoro-1-hydroxycyclohexyl)(1,4-dimethyl-1H-pyrazol-5-yl)methyl)thio)-2-(hydroxymethyl)-5-methoxy-4-(4-(3,4,5-trifluorophenyl)-1H-1,2,3-triazol-1-yl)tetrahydro-2H-pyran-3-ol] | 2530 | – | – | IC50 ([1]; Table 10, 2-OMe-Gal inhibitors, read-out: IC50 (Gal-3 inhibition)): 420 nM
5 | CC(C)(O)C(S[C@@H]1O[C@H](CO)[C@H](O)[C@H](n2cc(-c3cc(F)c(F)c(F)c3)nn2)[C@H]1O)c1cccc2ccccc12 (stereo partly drawn) [Example 2.31.115., (2S,3R,4S,5R,6R)-2-((2-Hydroxy-2-methyl-1-(naphthalen-1-yl)propyl)thio)-6-(hydroxymethyl)-4-(4-(3,4,5-trifluorophenyl)-1H-1,2,3-triazol-1-yl)tetrahydro-2H-pyran-3,5-diol] | 1390 | – | 180 | –
6 | CCc1c([C@@H](S[C@@H]2O[C@H](CO)[C@H](O)[C@H](n3cc(-c4cc(F)c(F)c(F)c4)nn3)[C@H]2O)C2(O)CCC(F)(F)CC2)noc1C1CC1 [Example 2.44.130R., (2S,3R,4S,5R,6R)-2-(((R)-(5-Cyclopropyl-4-ethylisoxazol-3-yl)(4,4-difluoro-1-hydroxycyclohexyl)methyl)thio)-6-(hydroxymethyl)-4-(4-(3,4,5-trifluorophenyl)-1H-1,2,3-triazol-1-yl)tetrahydro-2H-pyran-3,5-diol] | 160 | – | 20 | –
7 | CO[C@@H]1[C@@H](n2cc(-c3ccc(F)c(F)c3)nn2)[C@@H](O)[C@@H](CO)O[C@H]1S[C@H](c1ncccc1C)C1(O)CCC(F)(F)CC1 [Example 16.44.126R.I., (2R,3R,4S,5R,6S)-6-(((R)-(4,4-Difluoro-1-hydroxycyclohexyl)(3-methylpyridin-2-yl)methyl)thio)-4-(4-(3,4-difluorophenyl)-1H-1,2,3-triazol-1-yl)-2-(hydroxymethyl)-5-methoxytetrahydro-2H-pyran-3-ol] | 570 | – | – | IC50 [1, 5]: 80 nM
8 | CC(C)(O)[C@@H](S[C@@H]1O[C@H](CO)[C@H](O)[C@H](n2cc(-c3cc(F)c(F)c(F)c3)nn2)[C@H]1O)c1ccccc1C1CC1 [Example 2.31.106S., (2S,3R,4S,5R,6R)-2-(((S)-1-(2-cyclopropylphenyl)-2-hydroxy-2-methylpropyl)thio)-6-(hydroxymethyl)-4-(4-(3,4,5-trifluorophenyl)-1H-1,2,3-triazol-1-yl)tetrahydro-2H-pyran-3,5-diol] | 65000 | – | 15900 | –
9 | CC(C)Cc1c([C@H](S[C@@H]2O[C@H](CO)[C@H](O)[C@H](n3cc(-c4cc(F)c(F)c(F)c4)nn3)[C@H]2O)C2(O)CCC(F)(F)CC2)noc1C1CC1 [Example 2.44.131S., (2S,3R,4S,5R,6R)-2-(((S)-(5-Cyclopropyl-4-isobutylisoxazol-3-yl)(4,4-difluoro-1-hydroxycyclohexyl)methyl)thio)-6-(hydroxymethyl)-4-(4-(3,4,5-trifluorophenyl)-1H-1,2,3-triazol-1-yl)tetrahydro-2H-pyran-3,5-diol] | 13700 | – | 9740 | –
10 | CNS(=O)(=O)N1CCC(O)(C(S[C@@H]2O[C@H](CO)[C@H](O)[C@H](n3cc(-c4cc(F)c(F)c(F)c4)nn3)[C@H]2O)c2ccccc2C(F)(F)F)CC1 (stereo partly drawn) [Example 2.46.112., 4-((((2S,3R,4S,5R,6R)-3,5-Dihydroxy-6-(hydroxymethyl)-4-(4-(3,4,5-trifluorophenyl)-1H-1,2,3-triazol-1-yl)tetrahydro-2H-pyran-2-yl)thio)(2-(trifluoromethyl)phenyl)methyl)-4-hydroxy-N-methylpiperidine-1-sulfonamide] | 270 | – | 50 | –
11 | CC(C)c1cccnc1C(S[C@@H]1O[C@H](CO)[C@H](O)[C@H](n2cc(-c3cc(F)c(F)c(F)c3)nn2)[C@H]1O)C1(O)CCC(F)(F)CC1 (stereo partly drawn) [Example 2.44.132., (2S,3R,4S,5R,6R)-2-(((4,4-Difluoro-1-hydroxycyclohexyl)(3-isopropylpyridin-2-yl)methyl)thio)-6-(hydroxymethyl)-4-(4-(3,4,5-trifluorophenyl)-1H-1,2,3-triazol-1-yl)tetrahydro-2H-pyran-3,5-diol] | 160 | – | 100 | –
12 | OC[C@H]1O[C@@H](S[C@@H](c2ncccc2C(F)(F)F)C2(O)CCCCC2)[C@H](O)[C@@H](n2cc(-c3cc(F)c(F)c(F)c3)nn2)[C@H]1O [Example 2.39.125S., (2S,3R,4S,5R,6R)-2-(((S)-(1-Hydroxycyclohexyl)(3-(trifluoromethyl)pyridin-2-yl)methyl)thio)-6-(hydroxymethyl)-4-(4-(3,4,5-trifluorophenyl)-1H-1,2,3-triazol-1-yl)tetrahydro-2H-pyran-3,5-diol] | 21800 | 3000 | – | –
13 | (2S,3R,4S,5R,6R)-2-(((R)-((S)-4-Hydroxy-2,2-dimethyltetrahydro-2H-pyran-4-yl)(2-(trifluoromethyl)phenyl)methyl)thio)-6-(hydroxymethyl)-4-(4-(3,4,5-trifluorophenyl)-1H-1,2,3-triazol-1-yl)tetrahydro-2H-pyran-3,5-diol [Example 2.43.102RS.] | 800 | 40 | – | –
14 | CO[C@@H]1[C@@H](n2cc(-c3cc(F)c(Cl)c(F)c3)nn2)[C@@H](O)[C@@H](CO)O[C@H]1SC(c1ncccc1C)C1(O)CCC(F)(F)CC1 (stereo partly drawn) [Example 11.44.126.I., (2R,3R,4S,5R,6S)-4-(4-(4-Chloro-3,5-difluorophenyl)-1H-1,2,3-triazol-1-yl)-6-(((4,4-difluoro-1-hydroxycyclohexyl)(3-methylpyridin-2-yl)methyl)thio)-2-(hydroxymethyl)-5-methoxytetrahydro-2H-pyran-3-ol] | 2430 | – | – | IC50 [1, 5]: 90 nM
15 | CCCc1ccccc1C(S[C@@H]1O[C@H](CO)[C@H](O)[C@H](n2cc(-c3cc(F)c(F)c(F)c3)nn2)[C@H]1O)C(C)(C)O (stereo partly drawn) [Example 2.31.104., (2S,3R,4S,5R,6R)-2-((2-Hydroxy-2-methyl-1-(2-propylphenyl)propyl)thio)-6-(hydroxymethyl)-4-(4-(3,4,5-trifluorophenyl)-1H-1,2,3-triazol-1-yl)tetrahydro-2H-pyran-3,5-diol] | 600 | – | 170 | –
16 | (2S,3R,4S,5R,6R)-2-(((R)-(2,3-Dichlorophenyl)(4,4-difluoro-1-hydroxycyclohexyl)methyl)thio)-6-(hydroxymethyl)-4-(4-(3,4,5-trifluorophenyl)-1H-1,2,3-triazol-1-yl)tetrahydro-2H-pyran-3,5-diol [Example 2.44.113R.] | 1730 | 800 | – | –
17 | Cc1nc(C)c([C@H](S[C@@H]2O[C@H](CO)[C@H](O)[C@H](n3cc(-c4cc(F)c(F)c(F)c4)nn3)[C@H]2O)C(C)(C)O)nc1C [Example 2.31.119S., (2S,3R,4S,5R,6R)-2-(((S)-2-Hydroxy-2-methyl-1-(3,5,6-trimethylpyrazin-2-yl)propyl)thio)-6-(hydroxymethyl)-4-(4-(3,4,5-trifluorophenyl)-1H-1,2,3-triazol-1-yl)tetrahydro-2H-pyran-3,5-diol] | 18400 | – | 2630 | –
18 | Cc1ccccc1[C@@H](S[C@@H]1O[C@H](CO)[C@H](O)[C@H](n2cc(-c3cc(F)c(F)c(F)c3)nn2)[C@H]1O)C(C)(C)O [Example 2.31.102R., (2S,3R,4S,5R,6R)-2-(((R)-2-Hydroxy-2-methyl-1-(o-tolyl)propyl)thio)-6-(hydroxymethyl)-4-(4-(3,4,5-trifluorophenyl)-1H-1,2,3-triazol-1-yl)tetrahydro-2H-pyran-3,5-diol] | 1420 | – | 120 | –
19 | (2S,3R,4S,5R,6R)-2-(((R)-(4-Hydroxy-2,2,6,6-tetramethyltetrahydro-2H-pyran-4-yl)(2-(trifluoromethyl)phenyl)methyl)thio)-6-(hydroxymethyl)-4-(4-(3,4,5-trifluorophenyl)-1H-1,2,3-triazol-1-yl)tetrahydro-2H-pyran-3,5-diol [Example 2.42.102R.] | 6400 | 90 | – | –
